Reference: patent US12263200B2, “Specific nutritional or therapeutic agent including a mixture of grape and blueberry” (priority 2015, dated 2025)

Test system: SK-N-SH cells
Test: Test 3: protection of neuronal cells against hydrogen peroxide (LDH cell death test, Resazurin cell survival test)
Format: cell-based, human
Conditions: for protection of cells against hydrogen peroxide, cumulative treatment, polyphenols taken individually (cell survival, Resazurin test): 1 μM, 1 nM and 1 pM for 3 consecutive days, then hydrogen peroxide 250 μM, analyzed 24 hours later; for protection of cells against hydrogen peroxide, acute treatment (cell death LDH release, survival Resazurin test): toxic hydrogen peroxide (250 μM), co-treated 24 hours at 1 μM, 1 nM and 1 pM
Protocol: For this, SK-N-SH cells, a cell line of human neuroblasts, were kept in a MEM supplemented with 10% (v/v) FBS, 100 U/ml of penicillin, 100 μg/ml of streptomycin and 1% sodium pyruvate (1 mM) in a humidified incubator at 37° C. with 5% CO2. The cells were grown to 80% confluence then seeded in multi-well cell culture plates to create different experimental models. The neuroprotective effect of the different compounds was analyzed by two different and complementary tests: the cell death quantification test and the cell survival test.
The cell death test is a colorimetric test based on measuring the activity of the lactate dehydrogenase (LDH) released by the cytosol from damaged cells in the supernatant.
The cell survival test was performed by conducting a Resazurin Test. Resazurin is an oxidation-reduction indicator of the permeable cell that can be used to monitor the number of viable cells by using tetrazolium compounds. The viable cells with an active metabolism can reduce resazurin into a resorufin product that is pink and fluorescent.
SK-N-SH neuronal cells were subjected to a toxic concentration of hydrogen peroxide (250 μM) and co-treated with epicatechin, catechin or ferulic acid at 1 μM, 1 nM and 1 pM for 24 hours. On completing the treatment, the cells were washed twice and cell death (release of LDH) and survival (Resazurin test) were analyzed.
In order to study the synergistic effect of epicatchin, catechin and ferulic acid, the SK-N-SH neuronal cells were subjected for 24 hours to a toxic concentration of hydrogen peroxide and co-treated with a mix comprising epicatechin, catechin and ferulic acid, said mix being tested at the different concentrations of 1 μM, 1 nM or 1 pM. On completing the treatment, the cells were washed twice and the cell death (release of LDH) and survival (Resazurin test) were analyzed.
The neuroprotective effects of the three polyphenols, i.e. epicatechin, catechin and ferulic acid, with a cumulative treatment, were then studied. The SK-N-SH cells were grown to 80% confluence then seeded in multi-well cell culture plates. […] On the third day, the cells were subjected to a toxic concentration of hydrogen peroxide (250 μM) and the protection was analyzed 24 hours later. On completing the treatment, the cells were washed twice and cell survival (Resazurin test) was analyzed.
In order to study the synergistic effect of epicatechin, catechin and ferulic acid, the SK-N-SH cells were grown to 80% confluence then seeded in multi-well cell culture plates. […] On the third day, the cells were subjected to a toxic concentration of hydrogen peroxide (125 μM and 250 μM) and the protection was analyzed 24 hours later. On completing the treatment, the cells were washed twice and cell survival (Resazurin test) was analyzed. […]

Row | Compound | protection of cells against hydrogen peroxide, cumulative treatment, polyphenols taken individually (cell survival, Resazurin test) | protection of cells against hydrogen peroxide, acute treatment (cell death LDH release, survival Resazurin test)
1 | COc1cc(/C=C/C(=O)O)ccc1O [ferulic acid] | do not protect the cells against hydrogen peroxide | do not protect the cells against hydrogen peroxide
2 | catechin | do not protect the cells against hydrogen peroxide | do not protect the cells against hydrogen peroxide
